# According to PMC8037033, “Synthesis and Rational Design of New Appended 1,2,3-Triazole-uracil Ensembles as Promising Anti-Tumor Agents via In Silico VEGFR-2 Transferase Inhibition” (Molecules, 2021):
# Experiments:
# [1] = test system: HUH-7 tumor cells; test: MTT cytotoxicity assay, HUH-7; assay type: cell-based; conditions: Homo sapiens, 72 h
# Experimental: (§1) The cell viability was measured by MTT colourimetric assay. The cell lines viz., HeLa (human cervical adenocarcinoma), HUH-7 (human hepatoma cancer cells) and NIH/3T3 (normal murine fibroblast cells) were supplemented with 10% fetal bovine serum and maintained in an environment of 5% CO2 at 37 °C temperature. Cell lines at a density of 2 × 10^3 cells/well were seeded onto 96 well plates for 16 h and maintained in DMEM culture media. Five different concentrations of synthesized ligands and 5-fluorouracil (except for normal cells) i.e., 0.1, 0.5, 1, 5 and 10 μM were treated against each cell line and incubated for 3 days at 37 °C [56]. Then, the solutions were discarded and an MTT reagent with a final concentration of 500 μg/mL was added to each well and plate and incubated for another 4–6 h. 200 μL of DMSO was added to solubilize purple precipitates (formazan product) and absorbance (optical density) was recorded at 570 nm on ELISA reader. IC50 values were calculated using dose-response data by applying the linear regression method. The experiments were done in triplicate for each concentration of ligand.
# [2] = test system: HeLa tumor cells; test: MTT cytotoxicity assay, HeLa; assay type: cell-based, human; conditions: 72 h
# Experimental: as §1
# [3] = test system: NIH/3T3 normal cells; test: MTT cytotoxicity assay, NIH/3T3 normal cells; assay type: cell-based, murine; conditions: Mus musculus, NIH3T3, 72 h
# Experimental: as §1
melting point [°C],SMILES,IC50 [1] [µM],"IC50 ([2]; Homo sapiens, HeLa) [µM]",IC50 [3] [µM],IC50 [2] [µM]
–,"O=c1[nH]cc(F)c(=O)[nH]1 [Compound 5-FU, 5-fluorouracil, reference compound]",30 ± 2.5,4.6 ± 0.2,–,–
120 to 121,"Cn1c(=O)cc(Cl)n(Cc2cn(-c3ccccc3)nn2)c1=O [Compound 5a, 6-Chloro-3-methyl-1-((1-phenyl-1H-1,2,3-triazol-4-yl)methyl)pyrimidine-2,4(1H,3H)-dione]",> 10,11.2 ± 0.1,> 10,–
97,"Cn1c(=O)cc(Cl)n(Cc2cn(-c3ccc(F)cc3)nn2)c1=O [Compound 5b, 6-Chloro-1-((1-(4-fluorophenyl)-1H-1,2,3-triazol-4-yl)methyl)-3-methylpyrimidine-2,4(1H,3H)-dione]",> 10,> 10,> 10,–
100,"Cn1c(=O)cc(Cl)n(Cc2cn(-c3ccc(Cl)cc3)nn2)c1=O [Compound 5c, 6-Chloro-1-((1-(4-chlorophenyl)-1H-1,2,3-triazol-4-yl)methyl)-3-methylpyrimidine-2,4(1H,3H)-dione]",> 10,> 10,> 10,–
110 to 112,"Cn1c(=O)cc(Cl)n(Cc2cn(-c3ccc([N+](=O)[O-])cc3)nn2)c1=O [Compound 5d, 6-Chloro-3-methyl-1-((1-(4-nitrophenyl)-1H-1,2,3-triazol-4-yl)methyl)pyrimidine-2,4(1H,3H)-dione]",> 10,> 10,> 10,–
145 to 148,"COc1ccc(-n2cc(Cn3c(Cl)cc(=O)n(C)c3=O)nn2)cc1 [Compound 5e, 6-Chloro-1-((1-(4-methoxyphenyl)-1H-1,2,3-triazol-4-yl)methyl)-3-methylpyrimidine-2,4-(1H,3H)-dione]",> 10,> 10,> 10,–
115 to 118,"Cn1c(=O)cc(Cl)n(Cc2cn(Cc3ccccc3)nn2)c1=O [Compound 5f, 1-((1-Benzyl-1H-1,2,3-triazol-4-yl)methyl)-6-chloro-3-methylpyrimidine-2,4(1H,3H)-dione]",10.8 ± 0.5,> 10,> 10,–
138 to 140,"Cn1c(=O)cc(Cl)n(Cc2cn(Cc3ccc(Br)cc3)nn2)c1=O [Compound 5g, 1-((1-(4-Bromobenzyl)-1H-1,2,3-triazol-4-yl)methyl)-6-chloro-3-methylpyrimidine-2,4(1H,3H)-dione]",> 10,> 10,> 10,–
–,"Cc1ccc(Cn2cc(Cn3c(Cl)cc(=O)n(C)c3=O)nn2)cc1 [Compound 5h, 6-Chloro-3-methyl-1-((1-(4-methylbenzyl)-1H-1,2,3-triazol-4-yl)methyl)pyrimidine-2,4(1H,3H)-dione]",7.7 ± 0.3,4.5 ± 0.5,> 10,–
98 to 100,"COc1cccc(Cn2cc(Cn3c(Cl)cc(=O)n(C)c3=O)nn2)c1 [Compound 5i, 6-Chloro-1-((1-(3-methoxybenzyl)-1H-1,2,3-triazol-4-yl)methyl)-3-methylpyrimidine-2,4(1H,3H)-dione]",9 ± 0.8,9,> 10,> 10
101 to 105,"Cn1c(=O)cc(Cl)n(Cc2cn(Cc3cccc(Oc4ccccc4)c3)nn2)c1=O [Compound 5j, 6-Chloro-3-methyl-1-((1-(3-phenoxybenzyl)-1H-1,2,3-triazol-4-yl)methyl)pyrimidine-2,4(1H,3H)-dione]",> 10,10 ± 1.5,> 10,–
125 to 128,"Cn1c(=O)cc(Cl)n(Cc2cn(Cc3nc(C4=Cc5ccccc5OC4)no3)nn2)c1=O [Compound 5k, 1-((1-((3-(2H-Chromen-3-yl)-1,2,4-oxadiazol-5-yl)methyl)-1H-1,2,3-triazol-4-yl)methyl)-6-chloro-3-methylpyrimidine-2,4(1H,3H)-dione]",> 10,> 10,> 10,–
122 to 125,"COc1cccc2c1OCC(c1noc(Cn3cc(Cn4c(Cl)cc(=O)n(C)c4=O)nn3)n1)=C2 [Compound 5l, 6-Chloro-1-((1-((3-(8-methoxy-2H-chromen-3-yl)-1,2,4-oxadiazol-5-yl)methyl)-1H-1,2,3-triazol-4-yl)methyl)-3-methylpyrimidine-2,4(1H,3H)-dione]",> 10,> 10,> 10,–
145 to 148,"Cc1cc(=O)oc2cc(OCCCCn3cc(Cn4c(Cl)cc(=O)n(C)c4=O)nn3)ccc12 [Compound 5m, 6-Chloro-3-methyl-1-((1-(4-((4-methyl-2-oxo-2H-chromen-7-yl)oxy)butyl)-1H-1,2,3-triazol-4-yl)methyl)pyrimidine-2,4(1H,3H)-dione]",> 10,> 10,> 10,–
96 to 98,"Cn1c(=O)cc(Cl)n(Cc2cn(CCCN3C(=O)c4cccc5cccc(c45)C3=O)nn2)c1=O [Compound 5n, 2-(3-(4-((6-Chloro-3-methyl-2,4-dioxo-3,4-dihydropyrimidin-1(2H)-yl)methyl)-1H-1,2,3-triazol-1-yl)propyl)-1H-benzo[de]isoquinoline-1,3(2H)-dione]",> 10,9.6 ± 1.2,> 10,–
100 to 102,"CCCCCCn1cc(Cn2c(Cl)cc(=O)n(C)c2=O)nn1 [Compound 5o, 6-Chloro-1-((1-hexyl-1H-1,2,3-triazol-4-yl)methyl)-3-methylpyrimidine-2,4(1H,3H)-dione]",> 10,> 10,> 10,–
–,"CCCCCCCCn1cc(Cn2c(Cl)cc(=O)n(C)c2=O)nn1 [Compound 5p, 6-Chloro-3-methyl-1-((1-octyl-1H-1,2,3-triazol-4-yl)methyl)pyrimidine-2,4(1H,3H)-dione]",> 10,> 10,> 10,–
115 to 118,"Cn1c(=O)cc(Cl)n(Cc2cn(CCCCn3cc(Cn4c(Cl)cc(=O)n(C)c4=O)nn3)nn2)c1=O [Compound 5q, 1,1’-((Butane-1,4-diylbis(1H-1,2,3-triazole-1,4-diyl))bis(methylene))bis(6-chloro-3-methylpyrimidine-2,4(1H,3H)-dione)]",> 10,> 10,> 10,–
114 to 115,"Cn1c(=O)cc(Cl)n(Cc2cn(CCCCCn3cc(Cn4c(Cl)cc(=O)n(C)c4=O)nn3)nn2)c1=O [Compound 5r, 1,1’-((Pentane-1,5-diylbis(1H-1,2,3-triazole-1,4-diyl))bis(methylene))bis(6-chloro-3-methylpyrimidine-2,4(1H,3H)-dione)]",> 10,9.6 ± 0.9,> 10,–
